In PMC12300041, “Tricyclic Isatin Derivatives as Anti-Inflammatory Compounds with High Kinase Binding Affinity” (Molecules, 2025):

Legend:
Test in all cases: KINOMEscan
Type in all cases: binding
SLK = target: T1, SLK (Homo sapiens, UniProt Q9H2G2)
T1 construct: purchased Eurofins DiscoverX KINOMEscan
How it was run: (§1)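 Binding reactions proceed for 1 h at room temperature. Kinase not bound by compound is captured on immobilized affinity ligand and quantified by qPCR; Kd is fitted over 12 half-log concentrations, top 33 μM.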

PIK3CA (Q546K) = target: T2, PIK3CA (Q546K) (Homo sapiens, UniProt P42336, Q546K)
T2 construct: purchased Eurofins DiscoverX KINOMEscan
How it was run: as §1

BRSK1 = target: T3, BRSK1 (Homo sapiens, UniProt Q8TDC3)
T3 construct: purchased Eurofins DiscoverX KINOMEscan
How it was run: as §1

MYLK = target: T4, MYLK (Homo sapiens, UniProt Q15746)
T4 construct: purchased Eurofins DiscoverX KINOMEscan
How it was run: as §1

YES = target: T5, YES (Homo sapiens, UniProt P07947)
T5 construct: purchased Eurofins DiscoverX KINOMEscan
T5 sequence (P07947 whole entry): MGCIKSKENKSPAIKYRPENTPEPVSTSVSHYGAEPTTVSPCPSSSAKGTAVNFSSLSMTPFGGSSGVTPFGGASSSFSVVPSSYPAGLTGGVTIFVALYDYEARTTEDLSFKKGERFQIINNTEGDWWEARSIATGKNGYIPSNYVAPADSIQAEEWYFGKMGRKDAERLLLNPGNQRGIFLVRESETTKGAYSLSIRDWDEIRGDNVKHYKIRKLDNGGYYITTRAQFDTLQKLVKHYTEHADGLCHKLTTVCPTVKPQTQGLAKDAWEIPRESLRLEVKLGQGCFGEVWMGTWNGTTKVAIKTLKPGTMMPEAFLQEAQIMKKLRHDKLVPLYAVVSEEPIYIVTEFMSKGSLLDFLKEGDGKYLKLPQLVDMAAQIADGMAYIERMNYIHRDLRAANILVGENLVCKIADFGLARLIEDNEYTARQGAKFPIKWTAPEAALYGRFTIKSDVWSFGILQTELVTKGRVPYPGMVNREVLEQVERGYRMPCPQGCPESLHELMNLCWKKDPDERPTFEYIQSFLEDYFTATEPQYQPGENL
How it was run: as §1

KIT (D816H) = target: T6, KIT (D816H) (Homo sapiens, UniProt P10721, D816H)
T6 construct: purchased Eurofins DiscoverX KINOMEscan
How it was run: as §1

GRK7 = target: T7, GRK7 (Homo sapiens, UniProt Q8WTQ7)
T7 construct: purchased Eurofins DiscoverX KINOMEscan
T7 sequence (Q8WTQ7 whole entry): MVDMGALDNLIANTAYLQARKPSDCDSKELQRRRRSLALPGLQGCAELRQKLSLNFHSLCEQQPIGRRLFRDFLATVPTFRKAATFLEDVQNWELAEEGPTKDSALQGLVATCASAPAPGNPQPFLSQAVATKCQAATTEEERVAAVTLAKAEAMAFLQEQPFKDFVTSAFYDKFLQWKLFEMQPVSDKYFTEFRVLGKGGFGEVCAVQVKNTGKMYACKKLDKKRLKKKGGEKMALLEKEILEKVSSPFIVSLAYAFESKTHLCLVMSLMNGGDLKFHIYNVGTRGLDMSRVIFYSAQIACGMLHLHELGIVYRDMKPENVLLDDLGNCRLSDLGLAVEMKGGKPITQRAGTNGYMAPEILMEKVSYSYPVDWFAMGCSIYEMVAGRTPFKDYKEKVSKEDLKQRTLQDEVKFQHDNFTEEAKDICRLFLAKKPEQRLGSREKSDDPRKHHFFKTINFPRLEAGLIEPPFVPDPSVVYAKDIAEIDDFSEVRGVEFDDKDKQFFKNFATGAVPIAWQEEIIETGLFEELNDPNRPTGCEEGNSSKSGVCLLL
How it was run: as §1

MARK2 = target: T8, MARK2 (Homo sapiens, UniProt Q7KZI7)
T8 construct: purchased Eurofins DiscoverX KINOMEscan
T8 sequence (Q7KZI7 whole entry): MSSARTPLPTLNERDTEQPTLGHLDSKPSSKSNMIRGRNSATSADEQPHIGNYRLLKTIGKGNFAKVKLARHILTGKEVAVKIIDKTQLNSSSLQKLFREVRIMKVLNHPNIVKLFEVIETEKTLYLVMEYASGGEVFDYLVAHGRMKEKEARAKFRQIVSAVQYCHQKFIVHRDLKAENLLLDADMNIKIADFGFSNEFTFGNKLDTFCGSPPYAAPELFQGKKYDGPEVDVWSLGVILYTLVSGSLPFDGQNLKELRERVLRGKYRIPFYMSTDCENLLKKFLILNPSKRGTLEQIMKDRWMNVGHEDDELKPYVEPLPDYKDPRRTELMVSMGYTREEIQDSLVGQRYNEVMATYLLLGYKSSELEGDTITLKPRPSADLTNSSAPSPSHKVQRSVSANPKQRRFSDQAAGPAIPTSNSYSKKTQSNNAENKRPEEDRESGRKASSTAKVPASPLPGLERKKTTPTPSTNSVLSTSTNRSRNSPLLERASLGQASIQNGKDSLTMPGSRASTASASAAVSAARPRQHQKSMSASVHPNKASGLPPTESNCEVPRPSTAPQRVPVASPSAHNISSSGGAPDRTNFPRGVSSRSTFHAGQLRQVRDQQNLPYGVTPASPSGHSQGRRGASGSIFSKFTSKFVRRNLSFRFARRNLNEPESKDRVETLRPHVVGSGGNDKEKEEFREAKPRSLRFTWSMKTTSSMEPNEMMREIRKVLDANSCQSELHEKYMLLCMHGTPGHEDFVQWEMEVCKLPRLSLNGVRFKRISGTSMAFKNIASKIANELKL
How it was run: as §1

BUB1 = target: T9, BUB1 (Homo sapiens, UniProt O43683)
T9 construct: purchased Eurofins DiscoverX KINOMEscan
How it was run: as §1

CSF1R-autoinhibited = target: T10, CSF1R-autoinhibited (Homo sapiens, UniProt P07333)
T10 construct: purchased Eurofins DiscoverX KINOMEscan
How it was run: as §1

TRPM6 = target: T11, TRPM6 (Homo sapiens, UniProt Q9BX84)
T11 construct: purchased Eurofins DiscoverX KINOMEscan
How it was run: as §1

ROS1 = target: T12, ROS1 (Homo sapiens, UniProt P08922)
T12 construct: purchased Eurofins DiscoverX KINOMEscan
How it was run: as §1

SIK = target: T13, SIK (Homo sapiens, UniProt P57059)
T13 construct: purchased Eurofins DiscoverX KINOMEscan
How it was run: as §1

TSSK3 = target: T14, TSSK3 (Homo sapiens, UniProt Q96PN8)
T14 construct: purchased Eurofins DiscoverX KINOMEscan
T14 sequence (Q96PN8 whole entry): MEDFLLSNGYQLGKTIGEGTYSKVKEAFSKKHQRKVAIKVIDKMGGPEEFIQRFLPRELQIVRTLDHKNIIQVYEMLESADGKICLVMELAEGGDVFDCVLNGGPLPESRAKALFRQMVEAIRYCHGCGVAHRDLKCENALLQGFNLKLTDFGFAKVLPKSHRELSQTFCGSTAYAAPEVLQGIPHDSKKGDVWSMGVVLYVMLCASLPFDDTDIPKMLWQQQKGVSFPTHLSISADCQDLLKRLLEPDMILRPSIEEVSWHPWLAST
How it was run: as §1

AKT1 = target: T15, AKT1 (Homo sapiens, UniProt P31749)
T15 construct: purchased Eurofins DiscoverX KINOMEscan
T15 sequence (P31749 whole entry): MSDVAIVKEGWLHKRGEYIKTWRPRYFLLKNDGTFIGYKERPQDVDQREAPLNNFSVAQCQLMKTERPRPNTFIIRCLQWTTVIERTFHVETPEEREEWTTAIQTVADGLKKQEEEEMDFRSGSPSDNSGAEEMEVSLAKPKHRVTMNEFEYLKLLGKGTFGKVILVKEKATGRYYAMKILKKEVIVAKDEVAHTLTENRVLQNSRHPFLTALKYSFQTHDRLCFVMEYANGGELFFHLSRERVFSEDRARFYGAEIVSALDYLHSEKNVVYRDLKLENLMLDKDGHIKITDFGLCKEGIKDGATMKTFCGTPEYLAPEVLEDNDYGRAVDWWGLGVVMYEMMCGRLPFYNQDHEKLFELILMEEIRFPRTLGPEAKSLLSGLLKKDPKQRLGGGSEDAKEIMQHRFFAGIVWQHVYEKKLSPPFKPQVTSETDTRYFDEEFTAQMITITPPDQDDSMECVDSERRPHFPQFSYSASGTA
How it was run: as §1

PIM2 = target: T16, PIM2 (Homo sapiens, UniProt Q9P1W9)
T16 construct: purchased Eurofins DiscoverX KINOMEscan
How it was run: as §1

MST3 = target: T17, MST3 (Homo sapiens, UniProt Q9Y6E0)
T17 construct: purchased Eurofins DiscoverX KINOMEscan
How it was run: as §1

PRKD2 = target: T18, PRKD2 (Homo sapiens, UniProt Q9BZL6)
T18 construct: purchased Eurofins DiscoverX KINOMEscan
How it was run: as §1

ACVR2B = target: T19, ACVR2B (Homo sapiens, UniProt Q13705)
T19 construct: purchased Eurofins DiscoverX KINOMEscan
T19 sequence (Q13705 19-512): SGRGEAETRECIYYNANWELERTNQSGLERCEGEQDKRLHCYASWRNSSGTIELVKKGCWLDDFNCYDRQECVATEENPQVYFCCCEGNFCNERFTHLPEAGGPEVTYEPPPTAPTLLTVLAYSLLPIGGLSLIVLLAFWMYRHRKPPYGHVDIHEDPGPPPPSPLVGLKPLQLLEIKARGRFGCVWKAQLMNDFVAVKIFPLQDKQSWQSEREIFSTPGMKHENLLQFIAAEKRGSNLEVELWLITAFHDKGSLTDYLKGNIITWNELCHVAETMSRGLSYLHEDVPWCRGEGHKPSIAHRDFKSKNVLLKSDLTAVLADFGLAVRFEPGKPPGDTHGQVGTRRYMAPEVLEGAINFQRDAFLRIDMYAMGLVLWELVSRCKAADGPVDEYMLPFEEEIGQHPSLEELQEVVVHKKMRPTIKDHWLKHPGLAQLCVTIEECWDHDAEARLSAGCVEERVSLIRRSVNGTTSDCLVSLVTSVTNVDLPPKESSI
How it was run: as §1

WNK1 = target: T20, WNK1 (Homo sapiens, UniProt Q9H4A3)
T20 construct: purchased Eurofins DiscoverX KINOMEscan
How it was run: as §1

HCK = target: T21, HCK (Homo sapiens, UniProt P08631)
T21 construct: purchased Eurofins DiscoverX KINOMEscan
T21 sequence (P08631 whole entry): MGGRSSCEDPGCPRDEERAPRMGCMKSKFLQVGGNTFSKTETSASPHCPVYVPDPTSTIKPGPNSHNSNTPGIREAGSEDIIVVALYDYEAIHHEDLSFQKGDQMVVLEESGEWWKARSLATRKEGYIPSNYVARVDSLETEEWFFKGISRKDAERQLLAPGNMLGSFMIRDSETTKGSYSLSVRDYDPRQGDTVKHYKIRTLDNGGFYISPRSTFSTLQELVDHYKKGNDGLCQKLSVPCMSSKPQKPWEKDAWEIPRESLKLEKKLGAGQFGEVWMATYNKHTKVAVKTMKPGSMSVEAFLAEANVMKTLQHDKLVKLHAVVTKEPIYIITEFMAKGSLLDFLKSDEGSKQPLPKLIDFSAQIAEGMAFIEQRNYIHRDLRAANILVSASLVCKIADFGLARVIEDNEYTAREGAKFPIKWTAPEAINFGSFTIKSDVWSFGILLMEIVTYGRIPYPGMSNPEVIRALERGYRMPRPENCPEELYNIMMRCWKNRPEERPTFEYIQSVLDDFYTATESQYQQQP
How it was run: as §1

ABL1 (T315I)-P = target: T22, ABL1 (T315I)-P (Homo sapiens, UniProt P00519, T315I)
T22 construct: purchased Eurofins DiscoverX KINOMEscan
How it was run: as §1

MLK2 = target: T23, MLK2 (Homo sapiens, UniProt Q02779)
T23 construct: purchased Eurofins DiscoverX KINOMEscan
How it was run: as §1

PIK3CD = target: T24, PIK3CD (Homo sapiens, UniProt O00329)
T24 construct: purchased Eurofins DiscoverX KINOMEscan
How it was run: as §1

IRAK4 = target: T25, IRAK4 (Homo sapiens, UniProt Q9NWZ3)
T25 construct: purchased Eurofins DiscoverX KINOMEscan
How it was run: as §1

EGFR (G719S) = target: T26, EGFR (G719S) (Homo sapiens, UniProt P00533, G719S)
T26 construct: purchased Eurofins DiscoverX KINOMEscan
How it was run: as §1

MAPKAPK2 = target: T27, MAPKAPK2 (Homo sapiens, UniProt P49137)
T27 construct: purchased Eurofins DiscoverX KINOMEscan
How it was run: as §1

[1] = target: T28, RSK3 (Kin. Dom.2-C-term.) (Homo sapiens, UniProt Q15349)
T28 construct: RSK3 (Kin. Dom.2-C-term.); purchased Eurofins DiscoverX KINOMEscan
How it was run: as §1

CDK2 = target: T29, CDK2 (Homo sapiens, UniProt P24941)
T29 construct: purchased Eurofins DiscoverX KINOMEscan
How it was run: as §1

SNRK = target: T30, SNRK (Homo sapiens, UniProt Q9NRH2)
T30 construct: purchased Eurofins DiscoverX KINOMEscan
How it was run: as §1

ROCK1 = target: T31, ROCK1 (Homo sapiens, UniProt Q13464)
T31 construct: purchased Eurofins DiscoverX KINOMEscan
How it was run: as §1

PDGFRB = target: T32, PDGFRB (Homo sapiens, UniProt P09619)
T32 construct: purchased Eurofins DiscoverX KINOMEscan
T32 sequence (P09619 33-1106): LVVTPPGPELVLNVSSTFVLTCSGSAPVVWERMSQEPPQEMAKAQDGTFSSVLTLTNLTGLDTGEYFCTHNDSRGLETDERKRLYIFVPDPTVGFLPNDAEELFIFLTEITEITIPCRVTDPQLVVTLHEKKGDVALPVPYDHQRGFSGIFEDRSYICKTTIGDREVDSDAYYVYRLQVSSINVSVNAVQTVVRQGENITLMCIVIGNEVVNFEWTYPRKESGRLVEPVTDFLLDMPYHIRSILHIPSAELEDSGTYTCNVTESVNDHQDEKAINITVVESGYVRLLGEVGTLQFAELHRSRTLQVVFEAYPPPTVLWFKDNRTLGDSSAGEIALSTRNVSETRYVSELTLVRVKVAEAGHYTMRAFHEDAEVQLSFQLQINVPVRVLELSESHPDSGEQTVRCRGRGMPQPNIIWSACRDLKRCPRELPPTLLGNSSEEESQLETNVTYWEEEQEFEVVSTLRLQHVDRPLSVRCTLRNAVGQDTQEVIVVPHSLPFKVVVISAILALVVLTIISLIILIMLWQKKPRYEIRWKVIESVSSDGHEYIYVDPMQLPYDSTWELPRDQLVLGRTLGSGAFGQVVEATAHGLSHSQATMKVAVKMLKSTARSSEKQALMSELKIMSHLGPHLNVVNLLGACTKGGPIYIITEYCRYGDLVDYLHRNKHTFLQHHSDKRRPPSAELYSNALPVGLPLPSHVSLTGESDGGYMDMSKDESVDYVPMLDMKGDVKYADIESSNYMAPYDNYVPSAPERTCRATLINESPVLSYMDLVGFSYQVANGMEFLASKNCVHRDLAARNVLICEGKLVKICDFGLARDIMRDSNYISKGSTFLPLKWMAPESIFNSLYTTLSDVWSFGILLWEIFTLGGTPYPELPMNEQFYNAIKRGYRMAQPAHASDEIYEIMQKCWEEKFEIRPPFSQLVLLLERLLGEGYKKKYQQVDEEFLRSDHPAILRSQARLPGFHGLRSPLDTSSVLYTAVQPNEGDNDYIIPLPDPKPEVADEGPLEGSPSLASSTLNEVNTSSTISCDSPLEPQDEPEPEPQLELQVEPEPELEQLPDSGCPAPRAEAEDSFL
How it was run: as §1

RET (V804M) = target: T33, RET (V804M) (Homo sapiens, UniProt P07949, V804M)
T33 construct: purchased Eurofins DiscoverX KINOMEscan
How it was run: as §1

NDR2 = target: T34, NDR2 (Homo sapiens, UniProt Q9Y2H1)
T34 construct: purchased Eurofins DiscoverX KINOMEscan
How it was run: as §1

LYN = target: T35, LYN (Homo sapiens, UniProt P07948)
T35 construct: purchased Eurofins DiscoverX KINOMEscan
How it was run: as §1

YANK3 = target: T36, YANK3 (Homo sapiens, UniProt Q86UX6)
T36 construct: purchased Eurofins DiscoverX KINOMEscan
How it was run: as §1

PRKG2 = target: T37, PRKG2 (Homo sapiens, UniProt Q13237)
T37 construct: purchased Eurofins DiscoverX KINOMEscan
How it was run: as §1

SNARK = target: T38, SNARK (Homo sapiens, UniProt Q9H093)
T38 construct: purchased Eurofins DiscoverX KINOMEscan
How it was run: as §1

TYK2 (JH1 domain-cat.) = target: T39, TYK2 (JH1 domain-cat.) (Homo sapiens, UniProt P29597)
T39 construct: TYK2 (JH1 domain-cat.); purchased Eurofins DiscoverX KINOMEscan
T39 sequence (P29597 888-1187 limits assumed): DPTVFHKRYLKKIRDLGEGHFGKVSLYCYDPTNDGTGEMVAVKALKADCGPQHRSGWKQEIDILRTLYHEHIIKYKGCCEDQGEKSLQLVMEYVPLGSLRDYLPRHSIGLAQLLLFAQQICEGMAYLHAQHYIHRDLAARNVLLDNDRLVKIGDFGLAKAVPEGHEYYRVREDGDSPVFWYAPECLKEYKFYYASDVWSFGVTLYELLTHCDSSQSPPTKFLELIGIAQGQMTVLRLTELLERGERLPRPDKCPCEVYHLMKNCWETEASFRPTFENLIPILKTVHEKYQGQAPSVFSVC
How it was run: as §1

## O=C1Nc2c(cc([N+](=O)[O-])c3c2CCCC3)C1=NO [Compound 5d, 3-(Hydroxyimino)-5-nitro-1,3,6,7,8,9-hexahydro-2H-benzo[g]indol-2-one]
SLK
  inhibition at 10 µM: 63%
PIK3CA (Q546K)
  inhibition at 10 µM: 40%
BRSK1
  inhibition at 10 µM: 36%
MYLK
  inhibition at 10 µM: 93.9%
YES
  inhibition at 10 µM: 26%
KIT (D816H)
  inhibition at 10 µM: 1%
GRK7
  inhibition at 10 µM: 43%
MARK2
  inhibition at 10 µM: 36%
BUB1
  inhibition at 10 µM: 95.6%
CSF1R-autoinhibited
  inhibition at 10 µM: 37%
TRPM6
  inhibition at 10 µM: 8%
ROS1
  inhibition at 10 µM: 67%
SIK
  inhibition at 10 µM: 9%
TSSK3
  inhibition at 10 µM: 61%
AKT1
  inhibition at 10 µM: 10%
PIM2
  inhibition at 10 µM: 96%
MST3
  inhibition at 10 µM: 62%
PRKD2
  inhibition at 10 µM: 77%
ACVR2B
  inhibition at 10 µM: 25%
WNK1
  inhibition at 10 µM: 12%
HCK
  inhibition at 10 µM: 20%
ABL1 (T315I)-P
  inhibition at 10 µM: 17%
MLK2
  inhibition at 10 µM: 4%
PIK3CD
  inhibition at 10 µM: 42%
IRAK4
  inhibition at 10 µM: 86%
EGFR (G719S)
  inhibition at 10 µM: 13%
MAPKAPK2
  inhibition at 10 µM: 9%
[1]
  inhibition at 10 µM: 74%
CDK2
  inhibition at 10 µM: 9%
SNRK
  inhibition at 10 µM: 22%
ROCK1
  inhibition at 10 µM: 61%
PDGFRB
  inhibition at 10 µM: 0%
RET (V804M)
  inhibition at 10 µM: 4%
NDR2
  inhibition at 10 µM: 13%
LYN
  inhibition at 10 µM: 9%
YANK3
  inhibition at 10 µM: 0%
PRKG2
  inhibition at 10 µM: 6%
SNARK
  inhibition at 10 µM: 90%
TYK2 (JH1 domain-cat.)
  inhibition at 10 µM: 90%
